Test results taken from US12408664B2 (priority 2018, dated 2025).
“And” between values parts separate entries of the source, which are not always exact repeats. Identical values can stand only once. Like-named read-outs stand apart in the source and are kept apart here.

Legend:
S. homoeocarpa [1] = assay: Plug transfer to PDA plates without calcium propionate (fungistatic or fungicidal); type: cell-based, Scerotinia homoeocarpa
dollar spot [2] = assay: Golf Course 1: infected live turfgrass, visual inspection for dollar spot; type: in vivo, Scerotinia homoeocarpa
Method: (§1) Calcium propionate was dissolved in water to form a 5% (w/v) solution. […] Zone 1 was left untreated, Zone 2 was treated with 2.5 grams calcium propionate per square meter, Zone 3 was treated with 5 grams of calcium propionate per square meter, and Zone 4 was treated with 10 grams of calcium propionate per square meter. The turfgrass was comprised primarily of Festuca rubra. The calcium propionate 5% (w/v) solution was sprayed onto the turfgrass.
(§2) The four zones were visually inspected for dollar spot after 10 days. […] In contrast, dollar spot could, still be visually detected in untreated Zone 1.
Thereafter, all of the zones (1-4) were treated with 5 grams of calcium propionate per square meter. The calcium propionate 5% (w/v) solution was sprayed onto the turfgrass every 10 to 14 days.

S. homoeocarpa [3] = assay: New inoculants in MEB liquid culture amended with calcium propionate; type: cell-based, Scerotinia homoeocarpa; conditions: MEB with 1, 2, 5 and 10% (w/v) calcium propionate; five days
Method: To examine the effective dose range in liquid culture, malt extract broth (MEB) was prepared and amended with calcium propionate at concentrations of 1, 2, 5 and 10% (w/v). Unamended MEB was used as a control for growth. Each of the four microbes identified in Example 1 was tested twice by inoculating MEB using agarose plugs from luxuriant cultures. Growth was observed over five days. In each microbe examined, visible growth in liquid culture was apparent by day 2 following inoculation with well-established growth by 4 days in the absence of calcium propionate.

Fusarium oxysporum = assay: Golf Course 2: infected live turfgrass, visual detection of Fusarium oxysporum infection; type: in vivo; conditions: 3-4 grams per square meter every 10 days, 5% (w/v) solution sprayed; 10 days following initial application
Method: (§3) Calcium propionate was dissolved in water to form a 5% (w/v) solution. […] The turfgrass was comprised primarily of Agrostis capillaris. The calcium propionate 5% (w/v) solution was sprayed onto the turfgrass at a concentration of 3-4 grams per square meter every 10 days.

R. solani = assay: Growth on PDA with calcium propionate fully integrated into the agarose; type: cell-based, Rhizoctonia solani; conditions: for Growth, R. solani: single plate
Method: (§4) In contrast to the zone of inhibition assays described in Examples 1-3, for this experiment, PDA with calcium propionate fully integrated into the agarose was prepared. Thus, inoculants were grown on plates in which calcium propionate was incorporated at a uniform concentration throughout the plate, rather than the zones of concentration established by simple diffusion in the zone of inhibition assays. The PDA plates were amended with 5, 7.5, 10, or 12% (w/v) calcium propionate. Growth diameter was recorded for 15 days post inoculation. The data shown in Table 3 represent the results of single plate tests.

dollar spot [4] = assay: Golf Course 2: infected live turfgrass, visual detection of dollar spot; type: in vivo, Scerotinia homoeocarpa; conditions: 3-4 grams per square meter every 10 days, 5% (w/v) solution sprayed; 10 days following initial application
Method: as §3

M. poae [5] = type: cell-based, Magnaporthe poae
M. poae [6] = type: cell-based, Magnaporthe poae; remark: listed apart in the source
S. homoeocarpa [7] = assay: Disrupted well-established culture transferred to amended MEB; type: cell-based, Scerotinia homoeocarpa; conditions: MEB with 1%, 2%, 5% or 10% (w/v) calcium propionate; five days
Source text: To examine the effect of calcium propionate on well-established cultures of S. homoeocarpa and M. poae, MEB was inoculated with agarose plugs as previously described. Cultures were allowed to grow for 10 days to establish a robust hyphal mat. After 10 days, hyphal mats were disrupted by pipetting to break up mycelium (disrupted culture). One milliliter of disrupted culture was transferred to MEB amended with 1%, 2%, 5%, or 10% (w/v) calcium propionate. MEB without calcium propionate was used as a control. Cultures were allowed to grow for five days following inoculation with disrupted mycelium.

G. graminis [8] = assay: Plug transfer to PDA plates without calcium propionate (fungistatic or fungicidal); type: cell-based, Gaeumannomyces graminis
turfgrass = assay: Golf Course 1: appearance of treated turfgrass; type: in vivo, Festuca rubra; conditions: after 10 days
Method: as §1, §2

G. graminis [9] = assay: Growth on PDA with calcium propionate fully integrated into the agarose; type: cell-based, Gaeumannomyces graminis
Method: as §4

[10] = plugs initially grown on 5, 7.5, 10 or 12% (w/v) calcium propionate, observed 14 days
[11] = PDA with 5% (w/v) calcium propionate, day 4, single plate
[12] = PDA with 5% (w/v) calcium propionate, day 5, single plate
[13] = PDA with 5% (w/v) calcium propionate, day 8, single plate
[14] = PDA with 5% (w/v) calcium propionate, day 11, single plate
[15] = PDA with 5% (w/v) calcium propionate, day 15, single plate
[16] = PDA with 7.5% (w/v) calcium propionate, day 4, single plate
[17] = PDA with 7.5% (w/v) calcium propionate, day 5, single plate
[18] = PDA with 7.5% (w/v) calcium propionate, day 8, single plate
[19] = PDA with 7.5% (w/v) calcium propionate, day 11, single plate
[20] = PDA with 7.5% (w/v) calcium propionate, day 15, single plate
[21] = PDA with 10% (w/v) calcium propionate, day 4, single plate
[22] = PDA with 10% (w/v) calcium propionate, day 5, single plate
[23] = PDA with 10% (w/v) calcium propionate, day 8, single plate
[24] = PDA with 10% (w/v) calcium propionate, day 11, single plate
[25] = PDA with 10% (w/v) calcium propionate, day 15, single plate
[26] = PDA with 12% (w/v) calcium propionate, day 4, single plate
[27] = PDA with 12% (w/v) calcium propionate, day 5, single plate
[28] = PDA with 12% (w/v) calcium propionate, day 8, single plate
[29] = PDA with 12% (w/v) calcium propionate, day 11, single plate
[30] = PDA with 12% (w/v) calcium propionate, day 15, single plate
[31] = any of the concentrations tested (5, 7.5, 10, 12% w/v), 15 days

## CCC(=O)[O-].CCC(=O)[O-].[Ca+2] [calcium propionate]
S. homoeocarpa [1]; 5% (w/v) calcium propionate
  fungistatic or fungicidal effect, S. homoeocarpa: fungicidal effect
S. homoeocarpa [1]; [10]
  growth on unamended PDA after plug transfer, S. homoeocarpa: No growth was seen
Dollar spot [2]; Zone 2: 2.5 grams per square meter, 5% (w/v) solution sprayed, after 10 days
  visual detection of dollar spot: could no longer be visually detected
Dollar spot [2]; Zone 3: 5 grams per square meter, 5% (w/v) solution sprayed, after 10 days
  visual detection of dollar spot: could no longer be visually detected
Dollar spot [2]; Zone 4: 10 grams per square meter, 5% (w/v) solution sprayed, after 10 days
  visual detection of dollar spot: could no longer be visually detected
Dollar spot [2]; zones 1-4, 5 grams per square meter every 10 to 14 days, several months (late summer to early spring)
  visual detection of dollar spot: could not be visually detected
S. homoeocarpa [3]
  growth in liquid culture, S. homoeocarpa: no growth was observed
Fusarium oxysporum
  visual detection of Fusarium oxysporum infection: could no longer be visually detected
R. solani; PDA with 5% (w/v) calcium propionate, day 4
  Growth, R. solani: 1.3 cm
R. solani; PDA with 5% (w/v) calcium propionate, day 5
  Growth, R. solani: 1.7 cm
R. solani; PDA with 5% (w/v) calcium propionate, day 8
  Growth, R. solani: 2.5 cm
R. solani; PDA with 5% (w/v) calcium propionate, day 11
  Growth, R. solani: 3.2 cm
R. solani; PDA with 5% (w/v) calcium propionate, day 15
  Growth, R. solani: 4.6 cm
R. solani; PDA with 7.5% (w/v) calcium propionate, day 4
  Growth, R. solani: 0 cm
R. solani; PDA with 7.5% (w/v) calcium propionate, day 5
  Growth, R. solani: 1 cm
R. solani; PDA with 7.5% (w/v) calcium propionate, day 8
  Growth, R. solani: 1.2 cm
R. solani; PDA with 7.5% (w/v) calcium propionate, day 11
  Growth, R. solani: 1.2 cm
R. solani; PDA with 7.5% (w/v) calcium propionate, day 15
  Growth, R. solani: 2.0 cm and 2 cm
R. solani; PDA with 10% (w/v) calcium propionate, day 4
  Growth, R. solani: 0 cm
R. solani; PDA with 10% (w/v) calcium propionate, day 5
  Growth, R. solani: 0 cm
R. solani; PDA with 10% (w/v) calcium propionate, day 8
  Growth, R. solani: 0 cm
R. solani; PDA with 10% (w/v) calcium propionate, day 11
  Growth, R. solani: 0 cm
R. solani; PDA with 10% (w/v) calcium propionate, day 15
  Growth, R. solani: 0 cm
R. solani; PDA with 10% and 12% (w/v) calcium propionate, 15 days
  growth inhibition, R. solani: fully inhibited growth
R. solani; PDA with 12% (w/v) calcium propionate, day 4
  Growth, R. solani: 0 cm
R. solani; PDA with 12% (w/v) calcium propionate, day 5
  Growth, R. solani: 0 cm
R. solani; PDA with 12% (w/v) calcium propionate, day 8
  Growth, R. solani: 0 cm
R. solani; PDA with 12% (w/v) calcium propionate, day 11
  Growth, R. solani: 0 cm
R. solani; PDA with 12% (w/v) calcium propionate, day 15
  Growth, R. solani: 0 cm
Dollar spot [4]
  visual detection of dollar spot infection: could no longer be visually detected
M. poae [5]; [11]
  Growth, M. Poae: 0 cm
M. poae [5]; [12]
  Growth, M. Poae: 0 cm
M. poae [5]; [13]
  Growth, M. Poae: 0 cm
M. poae [5]; [14]
  Growth, M. Poae: 0 cm
M. poae [5]; [15]
  Growth, M. Poae: 0 cm
M. poae [5]; [16]
  Growth, M. Poae: 0 cm
M. poae [5]; [17]
  Growth, M. Poae: 0 cm
M. poae [5]; [18]
  Growth, M. Poae: 0 cm
M. poae [5]; [19]
  Growth, M. Poae: 0 cm
M. poae [5]; [20]
  Growth, M. Poae: 0 cm
M. poae [5]; [21]
  Growth, M. Poae: 0 cm
M. poae [5]; [22]
  Growth, M. Poae: 0 cm
M. poae [5]; [23]
  Growth, M. Poae: 0 cm
M. poae [5]; [24]
  Growth, M. Poae: 0 cm
M. poae [5]; [25]
  Growth, M. Poae: 0 cm
M. poae [5]; [26]
  Growth, M. Poae: 0 cm
M. poae [5]; [27]
  Growth, M. Poae: 0 cm
M. poae [5]; [28]
  Growth, M. Poae: 0 cm
M. poae [5]; [29]
  Growth, M. Poae: 0 cm
M. poae [5]; [30]
  Growth, M. Poae: 0 cm
M. poae [5]; [31]
  Growth, M. Poae: no growth
M. poae [6]; 5% (w/v) calcium propionate
  fungistatic or fungicidal effect, M. poae: fungicidal effect
M. poae [6]; [10]
  growth on unamended PDA after plug transfer, M. poae: No growth was seen
S. homoeocarpa [7]
  growth of disrupted culture, S. homoeocarpa: No growth was observed
G. graminis [8]; 5% (w/v) calcium propionate
  fungistatic or fungicidal effect, G. graminis: fungicidal effect
G. graminis [8]; [10]
  growth on unamended PDA after plug transfer, G. graminis: No growth was seen
turfgrass; Zone 2: 2.5 grams per square meter
  appearance of the turfgrass: appeared healthy
turfgrass; Zone 3: 5 grams per square meter
  appearance of the turfgrass: appeared healthy
turfgrass; Zone 4: 10 grams per square meter
  effect on the turfgrass: burning effect
G. graminis [9]; [11]
  Growth, G. graminis: 0 cm
G. graminis [9]; [12]
  Growth, G. graminis: 0 cm
G. graminis [9]; [13]
  Growth, G. graminis: 0 cm
G. graminis [9]; [14]
  Growth, G. graminis: 0 cm
G. graminis [9]; [15]
  Growth, G. graminis: 0 cm
G. graminis [9]; [16]
  Growth, G. graminis: 0 cm
G. graminis [9]; [17]
  Growth, G. graminis: 0 cm
G. graminis [9]; [18]
  Growth, G. graminis: 0 cm
G. graminis [9]; [19]
  Growth, G. graminis: 0 cm
G. graminis [9]; [20]
  Growth, G. graminis: 0 cm
G. graminis [9]; [21]
  Growth, G. graminis: 0 cm
G. graminis [9]; [22]
  Growth, G. graminis: 0 cm
G. graminis [9]; [23]
  Growth, G. graminis: 0 cm
G. graminis [9]; [24]
  Growth, G. graminis: 0 cm
G. graminis [9]; [25]
  Growth, G. graminis: 0 cm
G. graminis [9]; [26]
  Growth, G. graminis: 0 cm
G. graminis [9]; [27]
  Growth, G. graminis: 0 cm
G. graminis [9]; [28]
  Growth, G. graminis: 0 cm
G. graminis [9]; [29]
  Growth, G. graminis: 0 cm
G. graminis [9]; [30]
  Growth, G. graminis: 0 cm
G. graminis [9]; [31]
  Growth, G. graminis: no growth
